# Tested on: T1, SN243
# T1 construct: purified
# Assay: pNP release, absorbance […] nm in microfluidic droplets
# Format: biochemical, metagenome: source not printed
# Settings: 100 mM Tris pH 8.0, 150 mM NaCl, room temperature, substrate in DMSO
SMILES,Km (mean of 12 datasets),Km (detection points 1-4 only)
O=C(O)C1OC(Oc2ccc([N+](=O)[O-])cc2)C(O)C(O)C1O (stereo not drawn) [pNP-β-GalA],1.6 ± 0.3 mM,
O=[N+]([O-])c1ccc(O[C@@H]2O[C@H](CO)[C@H](O)[C@H](O)[C@H]2O)cc1 [pNP-β-Gal],75.8 ± 7.7 mM,
O=C(O)[C@H]1O[C@@H](Oc2ccc([N+](=O)[O-])cc2)[C@H](O)[C@@H](O)[C@@H]1O [pNP-β-GlcA],,0.015 mM
O=[N+]([O-])c1ccc(O[C@@H]2O[C@H](CO)[C@@H](O)[C@H](O)[C@H]2O)cc1 [pNP-β-Glc],36.8 ± 9 mM,
O=[N+]([O-])c1ccc(O[C@@H]2OC[C@@H](O)[C@H](O)[C@H]2O)cc1 [pNP-β-Xyl],21.9 ± 1.6 mM,

# — publication PMC9730296, “High-Throughput Steady-State Enzyme Kinetics Measured in a Parallel Droplet Generation and Absorbance Detection Platform” (Analytical Chemistry, 2022)
